The values below come from US6140327A, “Morpholino-n-ethyl ester derivative of an indole sPLA2 inhibitor” (Eli Lilly and Company, priority 1999, dated 2000).

Data set [1] can be described thus: Monkey Pharmacokinetic Study (bioavailability). Format: in vivo. As to conditions: conclusion compared with other esters of the parent and the 2-methyl homolog, oral administration. How it is done: Plasma was assayed by HPLC to measure concentrations of the different sPLA2 inhibitors (measured as free acids).
Cmax (maximal plasma concentrations), and AUC values were determined from the mean plasma concentration-time profiles.

In data set [2] the target is recombinant human secreted phospholipase A2. As to conditions: cited from earlier work.
Data set [3] has the same target. As to conditions: guinea pig lung tissue; sPLA2 10 ug/ml; read-out: Tissue test secreted PLA2 Apparent KB; cited from earlier work.

As to `CCc1c(C(=O)C(N)=O)c2c(OCC(=O)OCCN3CCOCC3)cccc2n1Cc1ccccc1` [Compound 1, ((3-(2-amino-1,2-dioxoethyl)-2-ethyl-1-(phenylmethyl)-1H-indol-4-yl)oxy)acetic acid morpholino-N-ethyl ester], the “bioavailability (in words)” value was “unexpectedly more bioavailable than other esters of the parent sPLA2 inhibitor of formula II and also more bioavailable than the 2-methyl homolog of the parent sPLA2 inhibitor of formula II” in data set [1]; “highly bioavailable upon oral administration compared to closely related ester type prodrugs” in data set [1] (listed as formula (I)).
Turning to `CCc1c(C(=O)C(N)=O)c2c(OCC(=O)O)cccc2n1Cc1ccccc1` [formula (II), ((3-(2-amino-1,2-dioxoethyl)-2-ethyl-1-(phenylmethyl)-1H-indol-4-yl)oxy)acetic acid], in data set [2] (chromogenic assay, 3-4 tests, read-out: Inhibition of human secreted PLA2 IC50 ± mean deviation (3-4 tests)), the half-maximal inhibitory concentration (IC50) was 9 ± 1.73 nM. The “inhibiting sPLA2 (conclusion in words)” value in data set [2] (conclusion of Table I) is reported as “highly active in inhibiting sPLA2”. In addition, the Kb in data set [3] is 88.7 ± 18.2 nM.

The IC50 is the concentration needed to halve the response being measured.
